Data: ChEMBL document CHEMBL1255421, “In vitro fungicidal activities of echinocandins against Candida metapsilosis, C. orthopsilosis, and C. parapsilosis evaluated by time-kill studies” (2010)
≈ marks a conversion by molar mass, not a printed value. Calls of active or inactive are those of the source. The rule behind the calls is not given here. Numbered stars: 1 amine (or outer) side, 2 acyl side, 3 side chain; on linkers, the order of the positions; unused ones are H or OH. Bridge positions count the residues as written; N and C are the ends. Square brackets hold non-standard residues; d marks the D form. Peptide text beside a SMILES is read from it. * marks the point of attachment. pTerphenylCO(4''-OnC5H11) = CCCCCOc1ccc(-c2ccc(-c3ccc(C(=O)*)cc3)cc2)cc1; Orn(4R-OH,5R-OH) = O=C([C@H](C[C@@H](O)[C@@H](O)N[*:3])N[*:1])[*:2]; hTyr(3S-OH,4S-OH) = N[C@H](C(=O)O)[C@H](O)[C@@H](O)c1ccc(O)cc1; Pro(3S-OH,4S-Me) = C[C@H]1CN[C@H](C(=O)O)[C@H]1O; Hyp = O=C(O)[C@@H]1C[C@@H](O)CN1

Columns and labels:
Candida metapsilosis [1] = assay: Antifungal activity against Candida metapsilosis clinical isolate bloodstream form assessed as induction of fungal killing rate at 0.03 to 32 mg/L measured at 6 hrs by time-kill assay; assay type: functional, organism-based
Candida orthopsilosis [2] = assay: Antifungal activity against Candida orthopsilosis clinical isolate bloodstream form assessed as time required for 90% reduction in fungal growth at 1 mg/L by time-kill assay; assay type: functional
Candida metapsilosis [3] = assay: Antifungal activity against Candida metapsilosis clinical isolate bloodstream form assessed as time required for 99.9% reduction in fungal growth at 1 mg/L by time-kill assay; assay type: functional
Candida metapsilosis [4] = assay: Antifungal activity against Candida metapsilosis clinical isolate bloodstream form assessed as time required for 50% reduction in fungal growth at 0.25 mg/L by time-kill assay; assay type: functional
Candida orthopsilosis [5] = assay: Fungicidal activity against Candida orthopsilosis isolate CP-131 bloodstream form by CLSI method; assay type: functional; conditions: Lodderomyces orthopsilosis
Candida orthopsilosis [6] = assay: Antifungal activity against Candida orthopsilosis clinical isolate bloodstream form assessed as time required for 99.9% reduction in fungal growth at 16 mg/L by time-kill assay; assay type: functional
Candida orthopsilosis [7] = assay: Antifungal activity against Candida orthopsilosis clinical isolate bloodstream form assessed as time required for 99.9% reduction in fungal growth at 32 mg/L by time-kill assay; assay type: functional
Candida parapsilosis [8] = assay: Antifungal activity against Candida parapsilosis clinical isolate bloodstream form assessed as time required for 99.9% reduction in fungal growth at 4 mg/L by time-kill assay; assay type: functional
Candida parapsilosis [9] = assay: Fungicidal activity against Candida parapsilosis isolate CP-301 bloodstream form by CLSI method; assay type: functional; conditions: Lodderomyces parapsilosis
Candida metapsilosis [10] = assay: Antifungal activity against Candida metapsilosis clinical isolate bloodstream form assessed as time required for 90% reduction in fungal growth at 1 mg/L by time-kill assay; assay type: functional
Candida parapsilosis [11] = assay: Antifungal activity against Candida parapsilosis clinical isolate bloodstream form assessed as time required for 90% reduction in fungal growth at 32 mg/L by time-kill assay; assay type: functional
Candida orthopsilosis [12] = assay: Antifungal activity against Candida orthopsilosis clinical isolate bloodstream form assessed as time required for 50% reduction in fungal growth at 16 mg/L by time-kill assay; assay type: functional
Candida parapsilosis [13] = assay: Antifungal activity against Candida parapsilosis clinical isolate bloodstream form assessed as time required for 50% reduction in fungal growth at 0.25 mg/L by time-kill assay; assay type: functional
Candida orthopsilosis [14] = assay: Antifungal activity against Candida orthopsilosis clinical isolate bloodstream form assessed as time required for 50% reduction in fungal growth at 4 mg/L by time-kill assay; assay type: functional
Candida metapsilosis [15] = assay: Antifungal activity against Candida metapsilosis clinical isolate bloodstream form assessed as time required for 90% reduction in fungal growth at 4 mg/L by time-kill assay; assay type: functional
Candida metapsilosis [16] = assay: Antifungal activity against Candida metapsilosis clinical isolate bloodstream form assessed as time required for 50% reduction in fungal growth at 32 mg/L by time-kill assay; assay type: functional
Candida metapsilosis [17] = assay: Antifungal activity against Candida metapsilosis clinical isolate bloodstream form assessed as time required for 50% reduction in fungal growth at 1 mg/L by time-kill assay; assay type: functional
Candida orthopsilosis [18] = assay: Antifungal activity against Candida orthopsilosis clinical isolate bloodstream form assessed as mild induction of fungal death at 0.03 to 32 mg/L after 6 hrs by time-kill assay; assay type: functional, organism-based
Candida parapsilosis [19] = assay: Antifungal activity against Candida parapsilosis clinical isolate bloodstream form assessed as time required for 99.9% reduction in fungal growth at 16 mg/L by time-kill assay; assay type: functional
Candida parapsilosis [20] = assay: Fungicidal activity against Candida parapsilosis ATCC 22019 bloodstream form by CLSI method; assay type: functional; conditions: Lodderomyces parapsilosis
Candida metapsilosis [21] = assay: Antifungal activity against Candida metapsilosis clinical isolate bloodstream form assessed as time required for 99% reduction in fungal growth at 4 mg/L by time-kill assay; assay type: functional
Candida parapsilosis [22] = assay: Antifungal activity against Candida parapsilosis clinical isolate bloodstream form assessed as time required for 90% reduction in fungal growth at 4 mg/L by time-kill assay; assay type: functional
Candida parapsilosis [23] = assay: Antifungal activity against Candida parapsilosis clinical isolate bloodstream form assessed as time required for 90% reduction in fungal growth at 0.25 mg/L by time-kill assay; assay type: functional
Candida parapsilosis [24] = assay: Antifungal activity against Candida parapsilosis clinical isolate bloodstream form assessed as time required for 99% reduction in fungal growth at 16 mg/L by time-kill assay; assay type: functional
Candida parapsilosis [25] = assay: Antifungal activity against Candida parapsilosis clinical isolate bloodstream form assessed as time required for 50% reduction in fungal growth at 4 mg/L by time-kill assay; assay type: functional
Candida orthopsilosis [26] = assay: Antifungal activity against Candida orthopsilosis clinical isolate bloodstream form assessed as time required for 90% reduction in fungal growth at 4 mg/L by time-kill assay; assay type: functional
Candida orthopsilosis [27] = assay: Fungicidal activity against Candida orthopsilosis isolate CP-151 bloodstream form by CLSI method; assay type: functional; conditions: Lodderomyces orthopsilosis
Candida parapsilosis [28] = assay: Antifungal activity against Candida parapsilosis clinical isolate bloodstream form assessed as time required for 99% reduction in fungal growth at 4 mg/L by time-kill assay; assay type: functional
Candida orthopsilosis [29] = assay: Antifungal activity against Candida orthopsilosis clinical isolate bloodstream form assessed as time required for 99% reduction in fungal growth at 16 mg/L by time-kill assay; assay type: functional
Candida orthopsilosis [30] = assay: Antifungal activity against Candida orthopsilosis clinical isolate bloodstream form assessed as time required for 50% reduction in fungal growth at 1 mg/L by time-kill assay; assay type: functional
Candida parapsilosis [31] = assay: Fungicidal activity against Candida parapsilosis isolate CP-300 bloodstream form by CLSI method; assay type: functional; conditions: Lodderomyces parapsilosis
Candida orthopsilosis [32] = assay: Antifungal activity against Candida orthopsilosis clinical isolate bloodstream form assessed as time required for 99% reduction in fungal growth at 1 mg/L by time-kill assay; assay type: functional
Candida orthopsilosis [33] = assay: Antifungal activity against Candida orthopsilosis clinical isolate bloodstream form assessed as time required for 99.9% reduction in fungal growth at 1 mg/L by time-kill assay; assay type: functional
Candida metapsilosis [34] = assay: Antifungal activity against Candida metapsilosis clinical isolate bloodstream form assessed as time required for 90% reduction in fungal growth at 16 mg/L by time-kill assay; assay type: functional
Candida orthopsilosis [35] = assay: Antifungal activity against Candida orthopsilosis clinical isolate bloodstream form assessed as time required for 50% reduction in fungal growth at 0.25 mg/L by time-kill assay; assay type: functional
Candida orthopsilosis [36] = assay: Fungicidal activity against Candida orthopsilosis isolate CP-150 bloodstream form by CLSI method; assay type: functional; conditions: Lodderomyces orthopsilosis
Candida orthopsilosis [37] = assay: Antifungal activity against Candida orthopsilosis clinical isolate bloodstream form assessed as time required for 90% reduction in fungal growth at 32 mg/L by time-kill assay; assay type: functional
Candida orthopsilosis [38] = assay: Antifungal activity against Candida orthopsilosis clinical isolate bloodstream form assessed as time required for 90% reduction in fungal growth at 16 mg/L by time-kill assay; assay type: functional
Candida orthopsilosis [39] = assay: Antifungal activity against Candida orthopsilosis clinical isolate bloodstream form assessed as time required for 99.9% reduction in fungal growth at 0.25 mg/L by time-kill assay; assay type: functional
Candida parapsilosis [40] = assay: Fungicidal activity against Candida parapsilosis isolate CP-302 bloodstream form by CLSI method; assay type: functional; conditions: Lodderomyces parapsilosis
Candida parapsilosis [41] = assay: Antifungal activity against Candida parapsilosis clinical isolate bloodstream form assessed as induction of fungal killing rate at 0.03 to 32 mg/L measured at 6 hrs by time-kill assay; assay type: functional, organism-based
Candida orthopsilosis [42] = assay: Antifungal activity against Candida orthopsilosis clinical isolate bloodstream form assessed as induction of fungal killing rate at 0.03 to 32 mg/L measured at 6 hrs by time-kill assay; assay type: functional, organism-based
Candida parapsilosis [43] = assay: Antifungal activity against Candida parapsilosis clinical isolate bloodstream form assessed as time required for 99% reduction in fungal growth at 1 mg/L by time-kill assay; assay type: functional
Candida metapsilosis [44] = assay: Fungicidal activity against Candida metapsilosis isolate CP-132 bloodstream form by CLSI method; assay type: functional; conditions: Lodderomyces metapsilosis

**Q.** What does the source list for `CCCCCOc1ccc(-c2ccc(-c3ccc(C(=O)N[C@H]4C[C@@H](O)[C@@H](O)NC(=O)[C@@H]5[C@@H](O)[C@@H](C)CN5C(=O)[C@H]([C@@H](C)O)NC(=O)[C@H]([C@H](O)[C@@H](O)c5ccc(O)cc5)NC(=O)[C@@H]5C[C@@H](O)CN5C(=O)[C@H]([C@@H](C)O)NC4=O)cc3)cc2)cc1` [ANIDULAFUNGIN] ({pTerphenylCO(4''-OnC5H11)}-[Orn(4R-OH,5R-OH)]T[Hyp][hTyr(3S-OH,4S-OH)]T[Pro(3S-OH,4S-Me)]; lactam 1-C)?
**A.** Activity (Candida metapsilosis [1]): inactive; Time (Candida orthopsilosis [2]): 21.14 h; Time (Candida metapsilosis [3]): 15.67 h; Time (Candida metapsilosis [4]): 7.74 h; MIC (Candida orthopsilosis [5]): 0.25 µg/mL (≈ 0.219 µM); Time (Candida orthopsilosis [6]): 18.73 h; Time (Candida orthopsilosis [7]): 14.72 h; Time (Candida parapsilosis [8]): >48 h; MIC (Candida parapsilosis [9]): 1 µg/mL (≈ 0.877 µM); Time (Candida metapsilosis [10]): 5.22 h; Time (Candida parapsilosis [11]): 13.95 h; Time (Candida orthopsilosis [12]): 1.88 h; Time (Candida parapsilosis [13]): inactive; Time (Candida orthopsilosis [14]): 2.73 h; Time (Candida metapsilosis [15]): 7.94 h; Time (Candida metapsilosis [16]): 1.41 h; Time (Candida metapsilosis [17]): 1.57 h; Activity (Candida orthopsilosis [18]): Active; Time (Candida parapsilosis [19]): >48 h; MIC (Candida parapsilosis [20]): 1 µg/mL (≈ 0.877 µM); Time (Candida metapsilosis [21]): 15.89 h; Time (Candida parapsilosis [22]): >48 h; Time (Candida parapsilosis [23]): inactive; Time (Candida parapsilosis [24]): >48 h; Time (Candida parapsilosis [25]): 26.41 h; Time (Candida orthopsilosis [26]): 9.08 h; MIC (Candida orthopsilosis [27]): 0.5 µg/mL (≈ 0.438 µM); Time (Candida parapsilosis [28]): >48 h; Time (Candida orthopsilosis [29]): 12.48 h; Time (Candida orthopsilosis [30]): 6.36 h; MIC (Candida parapsilosis [31]): 0.5 µg/mL (≈ 0.438 µM); Time (Candida orthopsilosis [32]): 42.28 h; Time (Candida orthopsilosis [33]): >48 h; Time (Candida metapsilosis [34]): 5.01 h; Time (Candida orthopsilosis [35]): 17.4 h; MIC (Candida orthopsilosis [36]): 0.25 µg/mL (≈ 0.219 µM); Time (Candida orthopsilosis [37]): 4.91 h; Time (Candida orthopsilosis [38]): 6.24 h; Time (Candida orthopsilosis [39]): >48 h; MIC (Candida parapsilosis [40]): 1 µg/mL (≈ 0.877 µM); Activity (Candida parapsilosis [41]): inactive; Activity (Candida orthopsilosis [42]): inactive; Time (Candida parapsilosis [43]): inactive; MIC (Candida metapsilosis [44]): 0.06 µg/mL (≈ 0.0526 µM)
